One experiment relates to HSV-1. Nature of the experiment: HSV Antiviral (ELISA) assay. In kind it is cell-based. The note with it: for IC50 (ug/ml) HSV: HSV-1 in Vero cells. The procedure: Vero cells (ATCC #CCL-81) are plated on 96-well tissue culture plates at 3.5×10^4 cells per 100 μl tissue culture DMEM (Dulbecco's modified Eagle media) supplemented with 2% fetal bovine serum (FBS) in each well. After overnight incubation @ 37° C. (in 5% CO2) and 30 minutes prior to infection with HSV-1 (multiplicity of infection equal to 0.006), cells are either untreated, or treated with test compound (multiple concentrations) or reference standard drug control. After approximately 24 hours post-infection incubation @ 37° C. (in 5% CO2), cells are fixed for ELISA assay. The primary antibody is murine anti-HSV glycoprotein D monoclonal primary antibody and the secondary antibody is goat anti-mouse IgG linked to β-galactosidase. Thus the extent of viral replication is determined by assessing β-galactosidase activity by quantifying the generation of the 4-methyl umbelliferone fluorescent cleavage product after addition of the methyl umbelliferyl-β-D-galactoside (Sigma #M1633) substrate on a microfluorimeter (365 nm for excitation and 450 nm for emission). Antiviral activity (IC50) of the test compound is determined by comparing the flourescence obtained in absence of compound to that obtained in the presence of compound.
Background: An ELISA detects its analyte on a solid surface through an enzyme-linked reagent.

Experiment [1] deals with HCMV recombinant mutant virus (RV145). Nature of the experiment: HCMV microtiter plate assay (beta-glucuronidase reporter). In kind it is cell-based, Human Cytomegalovirus. The following applies: for IC50 (ug/ml) HCMV: HCMV in human foreskin fibroblasts. From the text: Ninety-six well plate cultures of human foreskin fibroblasts are infected in the presence of inhibitor compound with a HCMV recombinant mutant virus whose genome contains the prokaryotic beta-glucuronidase gene (Jefferson, R. A., S. M. Burgess, and D. Hirsh. 1986. Beta-glucuronidase from Escherichia coli as a gene fusion marker. Proc. Natl. Acad. Sci. USA 83:8447-8451) whose expression is controlled by a viral promoter. An example of such a virus is RV145 (Jones, T. R., V. P. Muzithras, and Y. Gluzman. 1991. Replacement mutagenesis of the human cytomegalovirus genome: US10 and US11 gene products are nonessential. J. Virol. 65:5860-5872). Since it is under the control of a viral promoter, beta-glucuronidase expression is an indirect indicator of growth and replication of HCMV in this assay. At 96 hours post-infection, the infected cell lysates are prepared (using 50 mM sodium phosphate [pH7.0] containing 0.1% Triton X-100 and 0.1% sarkosyl) and assayed for beta-glucuronidase activity using a substrate for the enzyme which when cleaved yields either a product which can be measured colorimetrically in a spectrophotometer or fluorescently in a microfluorimeter. Examples of such substrates are p-nitrophenyl-beta-D-glucuronide and methylumbelliferylglucuronide, respectively. The presence of an antiviral compound is indicated by the reduced expression of the HCMV genome resident beta-glucuronidase gene, compared to the absence of inhibitor. […] Data from this assay generated using varying amounts of inhibitor compound is also used to estimate the IC50 of an inhibitor compound.

For a further experiment, the system named is VZV strain Ellen. Nature of the experiment: VZV Antiviral (ELISA) assay. In kind it is cell-based. The following applies: VZV strain Ellen in HFF cells. The procedure:
For the generation of stock VZV to be used in the assay, VZV strain Ellen (ATCC #VR-1367) is used to infect human foreskin fibroblast (HFF) cells at low multiplicity (less than 0.1) and incubated overnight at 37° C. in 5% CO2. After the overnight incubation, the mixture of uninfected and VZV-infected HFF infected cells are then harvested and added to each well of 96-well plates (3.5×10^4 cells in 100 μl DMEM supplemented with 2% FBS) which contain test compound or the reference standard drug control (in 100 μl DMEM supplemented with 2% FBS per well). These cells are incubated for three days at 37° C. in 5% CO2, then fixed for ELISA assay. The primary antibody is murine anti-VZV glycoprotein II monoclonal antibody (Applied Biosystems, Inc. #13-145-100) and the secondary antibody is goat anti-mouse IgG linked to β-galactosidase. Thus the extent of viral replication is determined by assessing β-galactosidase activity by quantifying the generation of the 4-methyl umbelliferone fluorescent cleavage product after addition of the methyl umbelliferyl-β-D-galactoside (Sigma #M1633) substrate on a microfluorimeter (365 nm for excitation and 450 nm for emission). Antiviral activity (IC50) of the test compound is determined by comparing the flourescence obtained in absence of compound to that obtained in the presence of compound.

In brackets after ≈: the same amount, converted by molar mass.

With `O=C(NCc1ccc(Cl)c(Cl)c1)Nc1ccc(NC(=O)c2csnn2)cc1` [Example 90, [1,2,3]Thiadiazole-4-carboxylic acid {4-[3-(3,4-dichloro-benzyl)-ureido]-phenyl}-amide], the IC50 is over 10 µg/mL with HSV-1 (Human alphaherpesvirus 1, HSV-1 in Vero cells, read-out: IC50 (ug/ml) HSV) and 0.07 µg/mL (≈ 0.166 µM) in experiment [1] (Human betaherpesvirus 5, Fibroblast, read-out: IC50 (ug/ml) HCMV).

Take `COc1cc(OC)c(NC(=S)Nc2ccc(NC(=O)c3cnccn3)cc2)cc1Cl` [Example 144]: the “IC50 (ug/ml) HSV” value in the experiment with HSV-1 amounted to 7 µg/mL (≈ 15.8 µM). Further, the “IC50 (ug/ml) HCMV” value in experiment [1] was determined as 10 µg/mL (≈ 22.5 µM).

As for `O=C(Nc1ccc(NC(=S)NCc2ccc3c(c2)OCO3)cc1)c1ccco1` [Example 546], the “IC50 (ug/ml) VZV” value in the experiment with VZV strain Ellen came out at 7 µg/mL (≈ 17.7 µM). In addition, the “IC50 (ug/ml) HSV” value in the experiment with HSV-1 came to 1.7 µg/mL (≈ 4.3 µM).

Take `O=C(Nc1ccc(NC(=S)NCCCCc2ccccc2)cc1)c1csnn1` [Example 648]: the “IC50 (ug/ml) HSV” value with HSV-1 was over 10 µg/mL. In experiment [1], the “IC50 (ug/ml) HCMV” value came out at 0.01 µg/mL (≈ 0.0243 µM).

On to `O=C(Nc1ccc(NC(=S)NC(CO)c2ccccc2)cc1)c1csnn1` (centres unmarked) [Example 726], for which, in the experiment with HSV-1, the “IC50 (ug/ml) HSV” value is over 10 µg/mL.

For the compound `CC(C)(NC(=S)Nc1ccc(NC(=O)c2csnn2)cc1)c1ccccc1` [Example 728], the “IC50 (ug/ml) HSV” value in the experiment with HSV-1 stood at 9 µg/mL (≈ 22.6 µM).

For `CC(NC(=S)Nc1ccc(NC(=O)c2cscn2)cc1)c1ccc(F)c(C(F)(F)F)c1` (centres unmarked) [Example 838], in the experiment with VZV strain Ellen, the “IC50 (ug/ml) VZV” value was over 7.5 µg/mL. Moreover, in experiment [1], the “IC50 (ug/ml) HCMV” value was found to be 0.0007 µg/mL (≈ 0.00149 µM).

Take `CC(NC(=S)Nc1ccc(NC(=O)c2cscn2)cc1)c1ccc(F)cc1Cl` (centres unmarked) [Example 839]: the “IC50 (ug/ml) VZV” value in the experiment on VZV strain Ellen is over 7.5 µg/mL. Moreover, the “IC50 (ug/ml) HCMV” value in experiment [1] was determined as 0.004 µg/mL (≈ 0.0092 µM).

As to `CC(NC(=S)Nc1ccc(NC(=O)c2cscn2)cc1)c1ccc(F)c(F)c1` (centres unmarked) [Example 840], in the experiment with VZV strain Ellen, the “IC50 (ug/ml) VZV” value is 0.14 µg/mL (≈ 0.335 µM). In addition, the “IC50 (ug/ml) HCMV” value in experiment [1] amounted to 0.0015 µg/mL (≈ 0.00358 µM).

For the compound `CC(NC(=S)Nc1ccc(NC(=O)c2cscn2)cc1)c1ccc(Br)cc1F` (centres unmarked) [Example 841], in the experiment with VZV strain Ellen, the “IC50 (ug/ml) VZV” value is 0.77 µg/mL (≈ 1.61 µM). Also, in experiment [1], the “IC50 (ug/ml) HCMV” value was 0.0011 µg/mL (≈ 0.00229 µM).

`CC(NC(=S)Nc1ccc(NC(=O)c2cscn2)cc1)c1cccc(F)c1` (centres unmarked) [Example 842]: in the experiment on VZV strain Ellen, the “IC50 (ug/ml) VZV” value was determined as 1.55 µg/mL (≈ 3.87 µM). Also, the “IC50 (ug/ml) HCMV” value in experiment [1] stood at 0.02 µg/mL (≈ 0.0499 µM).

As for `CC(NC(=S)Nc1ccc(NC(=O)c2cscn2)cc1)c1ccccc1Br` (centres unmarked) [Example 843], the “IC50 (ug/ml) VZV” value in the experiment with VZV strain Ellen is over 7.5 µg/mL. Further, the “IC50 (ug/ml) HCMV” value in experiment [1] came to 0.0031 µg/mL (≈ 0.00672 µM).

On to `CC(NC(=S)Nc1ccc(NC(=O)c2cscn2)cc1)c1cccc(Br)c1` (centres unmarked) [Example 844], for which the “IC50 (ug/ml) VZV” value in the experiment on VZV strain Ellen was found to be 1.03 µg/mL (≈ 2.23 µM). In experiment [1], the “IC50 (ug/ml) HCMV” value came out at 0.0008 µg/mL (≈ 0.00173 µM).

Consider `CC(NC(=S)Nc1ccc(NC(=O)c2cscn2)cc1)c1ccccc1C(F)(F)F` (centres unmarked) [Example 845], for which, in the experiment on VZV strain Ellen, the “IC50 (ug/ml) VZV” value is over 7.5 µg/mL. Moreover, the “IC50 (ug/ml) HCMV” value in experiment [1] was determined as 0.0060 µg/mL (≈ 0.0133 µM).

In the case of `CC(NC(=S)Nc1ccc(NC(=O)c2cscn2)cc1)c1ccc(F)cc1F` (centres unmarked) [Example 846], the “IC50 (ug/ml) VZV” value in the experiment on VZV strain Ellen was 1.04 µg/mL (≈ 2.49 µM). Besides, the “IC50 (ug/ml) HCMV” value in experiment [1] is 0.0130 µg/mL (≈ 0.0311 µM).

`C[C@@H](NC(=S)Nc1ccc(NC(=O)c2cscn2)cc1)c1cc(C(F)(F)F)cc(C(F)(F)F)c1` [Example 847]: the “IC50 (ug/ml) VZV” value in the experiment with VZV strain Ellen is over 7.5 µg/mL. For the same compound, in experiment [1], the “IC50 (ug/ml) HCMV” value was found to be 0.0008 µg/mL (≈ 0.00154 µM).

On to `CC(NC(=S)Nc1ccc(NC(=O)c2cscn2)cc1)c1ccc(Cl)c(Cl)c1` (centres unmarked) [Example 848], for which the “IC50 (ug/ml) VZV” value with VZV strain Ellen was determined as 0.19 µg/mL (≈ 0.421 µM). Moreover, the “IC50 (ug/ml) HCMV” value in experiment [1] came to 0.002 µg/mL (≈ 0.00443 µM).

For the origin of these results see patent US6426355B1, “Heterocyclic carboxamide-containing thiourea inhibitors of herpes viruses containing phenylenediamine group” (American Home Products, priority 1998, dated 2002).
